PubChem BioAssay (NCI)
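Cultured in 96-well plates, cells were exposed to test compound for 48 hours across five concentrations. TGI denotes the concentration required for complete inhibition of growth.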

Experiments:
Test in all cases: NCI-60 cell line screen, 48 h
[1] = tested on: A498 renal
[2] = tested on: ACHN renal
[3] = tested on: HCC-2998 colon
[4] = tested on: HOP-62 NSCLC
[5] = tested on: HS 578T breast
[6] = tested on: IGROV1 ovarian
[7] = tested on: LOX IMVI melanoma
[8] = tested on: MALME-3M melanoma
[9] = tested on: MDA-N
[10] = tested on: NCI-H226 lung
[11] = tested on: NCI/ADR-RES ovarian
[12] = tested on: OVCAR-3 ovarian
[13] = tested on: RPMI-8226 leukemia
[14] = tested on: RXF 393 renal
[15] = tested on: SF-268 CNS
[16] = tested on: SF-539 CNS
[17] = tested on: SK-MEL-28 melanoma
[18] = tested on: SN12C renal
[19] = tested on: SNB-19 CNS
[20] = tested on: U251 CNS

Measured: TGI

Nc1nc(N)c2c(CCc3ccc(C(=O)N[C@@H](CCC(=O)O)C(=O)O)cc3)ccnc2n1
0.0952 µM: [3]
> 100 µM: all other assays above

CC(=O)N(C(=O)CC(=O)NNCc1ccccc1Cl)c1ccc(Cl)cc1
> 10 µM: all assays above

CC(=O)NC1C(O)C(O)C(CO)OC1n1nc(SCc2ccccc2)c(=O)[nH]c1=O (stereo not given)
> 100 µM: all assays above

c1cc2c(cc1NC1=NCCO1)CCCC2
6.25 µM: [16]
36.6 µM: [18]
10.9 µM: [4]
> 84.2 µM: [19]
23 µM: [5]
9.8 µM: [3]
9.74 µM: [1]
16.8 µM: [12]
14.2 µM: [14]
3.18 µM: [9]
23.5 µM: [6]
11.4 µM: [10]
12 µM: [13]
21.9 µM: [8]
25 µM: [15]
11.1 µM: [7]
27.2 µM: [17]
72.9 µM: [2]
8.84 µM: [11]
24.8 µM: [20]

CCCCCCCCCCCCCCCCCCNc1ccn(C2OC(COP(=O)(O)OCC(COP(=O)(O)OCC3OC(n4cc(C)c(=O)[nH]c4=O)CC3N=[N+]=[N-])OCCCCCCCCCCCCCCCCCC)C(O)C2O)c(=O)n1 (stereo not given)
27.8 µM: [20]
88.7 µM: [16]
54.2 µM: [7]
50.5 µM: [19]
> 100 µM: all other assays above
